The values below come from paper PMC7688903 (Frontiers in Microbiology, 2020).

Usually share remaining stands for the share of the starting amount still present when the sample was taken. Broadly, the IC50 is the concentration at which inhibition is half-maximal. Low readings indicate inhibition by little substance, high ones a need for much substance.

For one data set, the system named is E. coli ATCC 25922. It counts as cell-based, Escherichia coli. The settings on record: ATCC 25922, 20 h. The method, then: (§1) The antimicrobial activities of the peptides were tested against E. coli ATCC 25922, P. aeruginosa ATCC 27853, carbapenem-resistant P. aeruginosa SIPI-012, A. baumannii ATCC 19606, carbapenem-resistant A. baumannii SIPI-025, S. aureus ATCC 25923, and C. albicans ATCC 10231. The minimum inhibitory concentration (MIC) values were determined using the microdilution method according to Clinical and Laboratory Standards Institute guidelines ([CLSI, 2008], [2012]). The peptides were dissolved in 10 mM PB to a concentration of 1280 μg/mL as stock solutions.
(§2) For inoculum preparation of bacteria, morphologically similar colonies selected from fresh MH agar plates were transferred using a loop into approximately 10 mL of MH broth in a capped test tube and vortexed. The suspension was adjusted with MH broth to achieve a turbidity equivalent to a 0.5 McFarland standard (BaSO4 solution prepared spectrophotometrically). A working suspension was prepared by making a 1:15 dilution followed by a 1:20 dilution of the stock suspension with MH broth medium to obtain approximately 5 × 10^5 CFU/mL. For inoculum preparation of yeast, five fresh colonies of approximately 1 mm diameter were picked from 24-hour-old cultures of C. albicans and suspended in 5 mL of sterile 0.85% saline. The resulting suspension was vortexed and the cell density was adjusted by adding sufficient sterile saline to achieve a turbidity equivalent to a 0.5 McFarland standard. A working suspension was prepared by making a 1:100 dilution followed by a 1:20 dilution of the stock suspension with RPMI 1640 broth medium to obtain 0.5 × 10^3 to 2.5 × 10^3 CFU/mL. Intermediate twofold dilutions of the peptides were prepared in MH broth and RPMI 1640 medium, and 90 μL aliquots were added to each well in addition to 10 μL of the inoculum prepared above.
(§3) Each plate included a growth control well and a sterility (uninoculated) control well. Colistin, vancomycin hydrochloride, and amphotericin B were used as positive controls for gram-negative bacteria, gram-positive bacteria, and fungi, respectively. The bacterial and fungal plates were incubated at 37°C for 20 h and 35°C for 48 h, respectively, both under ambient atmosphere. The inhibition of microbial growth was assessed visually. The MICs were determined from independent triplicate assays.

In the next data set the test system is S. aureus ATCC 25923. As to the kind of experiment: microbe, parasite or virus in culture. It counts as cell-based, Staphylococcus aureus. The settings on record: ATCC 25923, 20 h. The method, then:
as §1, §2, §3

The test system of data set [1] is proteases secreted by S. aureus ATCC 25923. Kind of data set: in vitro. As to conditions: Staphylococcus aureus, S. aureus ATCC 25923 culture supernatant, pH 8. On the procedure:
The stabilities of the peptides toward proteases secreted by E. coli ATCC 25922, P. aeruginosa ATCC 27853, A. baumannii ATCC 19606, S. aureus ATCC 25923, and C. albicans ATCC 10231 were also examined. Microbial supernatants were prepared by resuspending single colonies of each strain in 20 mL of an appropriate culture medium followed by incubation at 37°C overnight. MH broth and 2% tryptone/2% dextrose were used as the culture media for bacteria and yeast, respectively. Each culture was then centrifuged at 12,000 × g for 10 min and the supernatant was adjusted to pH 8.0 with HCl or NaOH and then filtered through a 0.22 μm sterile filter membrane ([Zaet et al., 2017]). The peptides were then dissolved in the filtered supernatants to a concentration of 0.5 mg/mL, and the peptide-free supernatants were used as negative controls. The samples were incubated at 37°C for 24 h in a water bath and then analyzed by RP-HPLC as described above.

The test system of a further data set is human erythrocytes. Kind of data set: Hemolytic activity assay. It counts as cell-based. The settings on record: human RBC in PB, 37°C, 1 h, OD420, total lysis control 0.1% SDS, three technical replicates. On the procedure:
Whole blood was obtained from a healthy volunteer. The red blood cells (RBC) were then centrifuged (800 × g, 10 min), washed twice with PB, resuspended in 1 mL of PB, and incubated with various concentrations of the peptides (32–128 μM) at 37°C for 1 h. As a positive control, total lysis of the RBC was accomplished by incubation with 0.1% SDS. For each condition, three technical replicates were performed. After incubation, the RBC were centrifuged at 800 × g for 10 min and the amount of hemoglobin released into the supernatant was determined by measuring the optical density OD420 using a SpectraMax i3x microplate reader (Molecular Devices) ([Zaet et al., 2017]).

The next data set relates to RAW 264.7 cells. Kind of data set: Cell viability assay (MTT). The settings on record: 1–128 μM peptide in DMEM with 4% FBS, 42 h, 595 nm, triplicate. It counts as cell-based, mouse. The method, then:
The peptides were dissolved in ddH2O to a concentration of 256 μM. RAW 264.7 cells were cultured in 100 μL of DMEM containing 10% FBS and seeded at a density of 1 × 10^4 cells in a 96-well culture plate. The plate was incubated at 37°C under 5% CO2 atmosphere overnight. After attaining 80% confluency, the cells were treated with various concentrations of the peptides (1–128 μM) dissolved in DMEM containing 4% FBS for 42 h. Cytotoxicity was determined using the MTT tetrazolium reduction assay and quantified spectrophotometrically at 595 nm using a SpectraMax i3x microplate reader. The cell viability was calculated with respect to control samples treated only with DMEM containing 4% FBS ([Khara et al., 2016]). Each test was done in triplicate and the concentration required for 50% inhibition of viability (IC50) was determined.

For data set [2], the system named is carbapenem-resistant A. baumannii (CRAB) SIPI-025. It counts as cell-based, Acinetobacter baumannii. As to conditions: carbapenem-resistant (CRAB) SIPI-025, 20 h. The method, then:
as §1, §2, §3

Another data set concerns A. baumannii ATCC 19606. It counts as cell-based, Acinetobacter baumannii. The settings on record: ATCC 19606, 20 h. On the procedure: as §1, §2, §3
Data set [3] concerns carbapenem-resistant P. aeruginosa (CRPA) SIPI-012. It counts as cell-based, Pseudomonas aeruginosa. The settings on record: carbapenem-resistant (CRPA) SIPI-012, 20 h. On the procedure: as §1, §2, §3
The test system of another data set is P. aeruginosa ATCC 27853. It counts as cell-based, Pseudomonas aeruginosa. The settings on record: ATCC 27853, 20 h. The method, then: as §1, §2, §3
A further data set deals with C. albicans ATCC 10231. As to the kind of experiment: microbe, parasite or virus in culture. It counts as cell-based, Candida albicans. As to conditions: ATCC 10231, 48 h. The method, then:
as §1, §2, §3

The next data set deals with human plasma proteases. As to the kind of experiment: in vitro.
The test system of another data set is BALB/c mice. Kind of data set: In vivo acute toxicity, single injection. Further details: species or system mouse. As to conditions: single i.v. dose, all tested doses (5, 10, 20 mg/kg), three mice per dose, monitored 24 h. The method, then:
Six-week-old mice (approximate weight: 18–20 g, SFP grade) were bred and maintained under specific pathogen-free conditions on a 12 h light/dark cycle. The peptides were dissolved in PBS (pH 7.4) and three mice were used for each dose. As a control, colistin was administered in a similar manner. The mice were monitored for 24 h and mice were weighed at the end of the experiment. The procedure was evaluated and approved by the Ethical Committee of Experimental Animals of the Chia Tai Tianqing Pharmaceutical Group in August 2019.
As summarized in Figure 6, a toxicity score was assigned as follows: no abnormalities = without signs; mild depression, poor motility, purple-black tail, and recovery in 1 h = mild signs; serious depression and poor motility even under stimulation = manifest signs; sudden death within 10 min = died of toxic effects.

Another data set has as its system Trypsin. Kind of data set: trypsin in 0.1 M NH4HCO3 buffer (pH 8.2). The settings on record: 37°C, up to 24 h.
A short description of data set [4]: plasma from healthy volunteers. The settings on record: human, 37°C, up to 36 h.

“Also recorded” adds a separate entry of the source. Where no end group is shown, it is not given here. [ ]: non-standard residue; d: D form. 2Thi = N[C@@H](Cc1cccs1)C(=O)O

Description for human plasma proteases: The peptides were mixed with plasma from healthy volunteers to a final concentration of 0.1 mg/mL and incubated at 37°C. Aliquots (20 or 40 μL) were removed after 0, 2, 4, 6, 8, 12, 24, and 36 h, mixed with 0.05% TFA to a final concentration of 0.01 mg/mL, and incubated on ice for 10 min. After centrifugation (12,000 × g, 5 min), the supernatant was stored at −20°C. The samples were analyzed as described in section “Hydrophobicity” and quantified as described in section “Stability Toward Tryptic Degradation.” All stability tests were performed at least in triplicate. The identities of the metabolites after 12 h of degradation by plasma proteases were determined by LC-MS on a Waters Acquity UPLC-QDa system.

For KRLFKKLLKYLRKF-NH2 [Pep05], the MIC was determined as 1 µg/mL against E. coli ATCC 25922; 1 µg/mL against S. aureus ATCC 25923; 2 µg/mL in data set [2]; 2 µg/mL in the data set with A. baumannii ATCC 19606; 4 µg/mL in [3]; 2 µg/mL against P. aeruginosa ATCC 27853. The substance also gave an MIC against C. albicans ATCC 10231 of 4 µg/mL. Besides, the fraction remaining at 24 h, 0.5 mg/mL in data set [1] was 22.2 ± 4.47%. The “Hemolysis rate (%)” value was 34.39 ± 1.49% in the data set on human erythrocytes (64 μM) and 49.18 ± 2.01% in the data set with human erythrocytes (128 μM). Further, half-maximal inhibition with RAW 264.7 cells (IC50) was put at 13.4 ± 2.85 µM. The metabolised at 2 h, 0.1 mg/mL in the data set on human plasma proteases was over 40%. The same substance returned a metabolised at 4 h, 0.1 mg/mL with human plasma proteases of over 50%. For the same substance, the “signs of toxicity after intravenous injection” value in the data set with BALB/c mice is “no obvious abnormalities”.

As for KRLFKKLLKYLRK[2Thi], the fragment found result in the data set with Trypsin is given as “(K) Thi 14, major, 18 h; also recorded: (K) KLLK (Y) 6–9, major, 18 h; also recorded: (R)LFKK (L) 3–6, major, 18 h; also recorded: (K) LLK (Y) 7–9, major, 18 h; also recorded: (K) YLR (K) 10–12, major, 18 h; also recorded: (R) LFK (K) 3–5, major, 18 h”; in [4] it was “(L) FKKLLKYLRKThi 4–14, major, 12 h”.

On to DapHorLFDapDapLLDabYLHorDabF, for which the fragment found result with Trypsin is given as “DapHorLFDapDapLLDab (Y) 1–9, major, 18 h; also recorded: DapHorLFDapDapLLDabYLHor (Dab) 1–12, major, 18 h”; in data set [4] it was “(Hor) LFDapDapLLDabYLHorDabF 3–14, major, 12 h; also recorded: (Dap) HorLFDapDapLLDabYLHorDabF 2–14, major, 12 h”.

Consider KRL[2Thi]KKLLKYLRK[2Thi], for which the fragment found result is on record as “(K) Thi 14, major, 18 h; also recorded: (R) LThiKK (L) 3–6, major, 18 h; also recorded: (K) KLLK (Y) 6–9, major, 18 h; also recorded: (K) LLK (Y) 7–9, major, 18 h; also recorded: (K) YLR (K) 10–12, major, 18 h; also recorded: (R) LThiK (K) 3–5, major, 18 h” in the data set with Trypsin and “(R) LThiKKLLKYLRKThi 3–14, major, 12 h; also recorded: (K) RLThiKKLLKYLRKThi 2–14, major, 12 h” in data set [4].

Regarding KRLFKKLLKYLRKF, the fragment found entry in the data set with Trypsin is given as “(R) LFK (K) 3–5, major, 18 h; also recorded: (K) LLK (Y) 7–9, major, 18 h; also recorded: (K) YLR (K) 10–12, major, 18 h; also recorded: (K) KLLK (Y) 6–9, major, 18 h; also recorded: (R) LFKK (L) 3–6, major, 18 h”; in [4], “(R) LFKKLLKYLRKF 3–14, major, 12 h; also recorded: (K) RLFKKLLKYLRKF 2–14, major, 12 h”.

As to DabHorLFDabDabLLDabYLHorDabF, the fragment found result with Trypsin was “(Dab) HorLFDab (Dab) 2–5, major, 18 h; also recorded: (Dab) HorLFDabDabLLDab (Y) 2–9, major, 18 h”; in data set [4], “(Hor) LFDabDabLLDabYLHorDabF 3–14, major, 12 h; also recorded: (Dab) HorLFDabDabLLDabYLHorDabF 2–14, major, 12 h”.

With KRLFKKLLKYLRkF, the fragment found result with Trypsin is listed as “(K) KLLK (Y) 6–9, major, 18 h; also recorded: (R) LFKK (L) 3–6, major, 18 h; also recorded: (K) LLK (Y) 7–9, major, 18 h; also recorded: (K) YLR (k) 10–12, major, 18 h; also recorded: (R) LFK (K) 3–5, major, 18 h; also recorded: (K) YLRkF 10–14, major, 18 h”; in data set [4], “(K) RLFK(K) 2–5, major, 12 h; also recorded: KRLFKKLLKYL (R) 1–11, major, 12 h; also recorded: (K) RLFKKLLKYLRkF 2–14, major, 12 h”.

For the substance HorRLFKKLLKYLRKThi, the fragment found entry is on record as “(K) KLLK (Y) 6–9, major, 18 h; also recorded: (R) LFKK (L) 3–6, major, 18 h; also recorded: (K) LLK (Y) 7–9, major, 18 h; also recorded: (K) YLR (K) 10–12, major, 18 h; also recorded: (R) LFK (K) 3–5, major, 18 h” in the data set with Trypsin and “(R) LFKKLLKYLRKThi 3–14, major, 12 h; also recorded: (Hor) RLFKKLLKYLRKThi 2–14, major, 12 h” in data set [4].

With RRIFKRLFKYLRRF, the fragment found result in the data set on Trypsin is listed as “(R) RF 13–14, major, 18 h; also recorded: (K) YLRR (F) 10–13, major, 18 h; also recorded: (R) F 14, major, 18 h; also recorded: (K) YLR (R) 10–12, major, 18 h”; in data set [4] it was “(R) IFKRLFKYLRRF 3–14, major, 12 h; also recorded: (R) RIFKRLFKYLRRF 2–14, major, 12 h”.
